Measured values: publication PMC12446476 (Nature Communications, 2025)
≈ marks a conversion by molar mass, not a printed value. Like-named read-outs stand apart in the source and are kept apart here.

Tested on: N. gonorrhoeae
Test: MIC determination, agar dilution (CLSI)
Assay type: cell-based, Neisseria gonorrhoeae
Conditions: Neisseria gonorrhoeae
Summary of the method: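 For N. gonorrhoeae, WHO 2024 reference strains served as quality control, only whole doubling-dilution MICs were reported, and isolates were classified by EUCAST v14.0 breakpoints or ECOFF. Time-kill assays followed CLSI in Columbia broth with 1% IsoVitaleX, and viable counts came from plating serial dilutions on GC agar with IsoVitaleX.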

In the case of `Cc1c(CN(C)C(=O)/C=C/c2cnc3c(c2)N[C@H](C)[C@H](O)C(=O)N3)oc2ccccc12` [Debio 1453], the MIC (WHO X, agar dilution, read-out: MIC) is reported as 0.06 µg/mL (≈ 0.143 µM), the MIC (WHO Y, agar dilution, read-out: MIC) is reported as 0.06 µg/mL (≈ 0.143 µM) and the MIC (WHO Z, agar dilution, read-out: MIC) is reported as 0.06 µg/mL (≈ 0.143 µM). The MIC (clinical N. gonorrhoeae isolate 1, Sweden 2023, read-out: Minimum inhibitory concentration) was 0.064 µg/mL (≈ 0.152 µM), the MIC (clinical N. gonorrhoeae isolate 2, Sweden 2023, read-out: Minimum inhibitory concentration) was 0.032 µg/mL (≈ 0.0761 µM) and the MIC (clinical N. gonorrhoeae isolate 3, Sweden 2023, read-out: Minimum inhibitory concentration) was 0.064 µg/mL (≈ 0.152 µM). The MIC (clinical N. gonorrhoeae isolate 4, Sweden 2023, read-out: Minimum inhibitory concentration) was 0.032 µg/mL (≈ 0.0761 µM), the MIC (clinical N. gonorrhoeae isolate 5, Sweden 2023, read-out: Minimum inhibitory concentration) was 0.064 µg/mL (≈ 0.152 µM) and the MIC (clinical N. gonorrhoeae isolate 6, Sweden 2023, read-out: Minimum inhibitory concentration) was 0.032 µg/mL (≈ 0.0761 µM). The MIC (clinical N. gonorrhoeae isolate 7, Sweden 2023, read-out: Minimum inhibitory concentration) was 0.064 µg/mL (≈ 0.152 µM), the MIC (clinical N. gonorrhoeae isolate 8, Sweden 2023, read-out: Minimum inhibitory concentration) was 0.064 µg/mL (≈ 0.152 µM) and the MIC (clinical N. gonorrhoeae isolate 9, Sweden 2023, read-out: Minimum inhibitory concentration) was 0.064 µg/mL (≈ 0.152 µM). For the same compound, the MIC (clinical N. gonorrhoeae isolate 10, Sweden 2023, read-out: Minimum inhibitory concentration) was 0.064 µg/mL (≈ 0.152 µM), the MIC (clinical N. gonorrhoeae isolate 11, Sweden 2023, read-out: Minimum inhibitory concentration) was 0.064 µg/mL (≈ 0.152 µM) and the MIC (clinical N. gonorrhoeae isolate 12, Sweden 2023, read-out: Minimum inhibitory concentration) was 0.032 µg/mL (≈ 0.0761 µM). The MIC (clinical N. gonorrhoeae isolate 13, Sweden 2023, read-out: Minimum inhibitory concentration) was 0.064 µg/mL (≈ 0.152 µM), the MIC (clinical N. gonorrhoeae isolate 14, Sweden 2023, read-out: Minimum inhibitory concentration) was 0.032 µg/mL (≈ 0.0761 µM) and the MIC (clinical N. gonorrhoeae isolate 15, Sweden 2023, read-out: Minimum inhibitory concentration) was 0.064 µg/mL (≈ 0.152 µM). For the same compound, the MIC (clinical N. gonorrhoeae isolate 16, Sweden 2023, read-out: Minimum inhibitory concentration) was 0.064 µg/mL (≈ 0.152 µM), the MIC (clinical N. gonorrhoeae isolate 17, Sweden 2023, read-out: Minimum inhibitory concentration) was 0.064 µg/mL (≈ 0.152 µM) and the MIC (clinical N. gonorrhoeae isolate 18, Sweden 2023, read-out: Minimum inhibitory concentration) was 0.064 µg/mL (≈ 0.152 µM). The MIC (clinical N. gonorrhoeae isolate 19, Sweden 2023, read-out: Minimum inhibitory concentration) was 0.064 µg/mL (≈ 0.152 µM), the MIC (clinical N. gonorrhoeae isolate 20, Sweden 2023, read-out: Minimum inhibitory concentration) was 0.064 µg/mL (≈ 0.152 µM) and the MIC (clinical N. gonorrhoeae isolate 21, Sweden 2023, read-out: Minimum inhibitory concentration) was 0.064 µg/mL (≈ 0.152 µM). It also gave an MIC (clinical N. gonorrhoeae isolate 22, Sweden 2023, read-out: Minimum inhibitory concentration) of 0.125 µg/mL (≈ 0.297 µM), an MIC (clinical N. gonorrhoeae isolate 23, Sweden 2023, read-out: Minimum inhibitory concentration) of 0.064 µg/mL (≈ 0.152 µM) and an MIC (clinical N. gonorrhoeae isolate 24, Sweden 2023, read-out: Minimum inhibitory concentration) of 0.125 µg/mL (≈ 0.297 µM). The MIC (clinical N. gonorrhoeae isolate 25, Sweden 2023, read-out: Minimum inhibitory concentration) was 0.064 µg/mL (≈ 0.152 µM), the MIC (clinical N. gonorrhoeae isolate 26, Sweden 2023, read-out: Minimum inhibitory concentration) was 0.032 µg/mL (≈ 0.0761 µM) and the MIC (clinical N. gonorrhoeae isolate 27, Sweden 2023, read-out: Minimum inhibitory concentration) was 0.064 µg/mL (≈ 0.152 µM). It also gave an MIC (clinical N. gonorrhoeae isolate 28, Sweden 2023, read-out: Minimum inhibitory concentration) of 0.064 µg/mL (≈ 0.152 µM), an MIC (clinical N. gonorrhoeae isolate 29, Sweden 2023, read-out: Minimum inhibitory concentration) of 0.064 µg/mL (≈ 0.152 µM) and an MIC (clinical N. gonorrhoeae isolate 30, Sweden 2023, read-out: Minimum inhibitory concentration) of 0.125 µg/mL (≈ 0.297 µM). It also gave an MIC (clinical N. gonorrhoeae isolate 31, Sweden 2023, read-out: Minimum inhibitory concentration) of 0.064 µg/mL (≈ 0.152 µM), an MIC (clinical N. gonorrhoeae isolate 32, Sweden 2023, read-out: Minimum inhibitory concentration) of 0.016 µg/mL (≈ 0.0381 µM) and an MIC (clinical N. gonorrhoeae isolate 33, Sweden 2023, read-out: Minimum inhibitory concentration) of 0.064 µg/mL (≈ 0.152 µM). For the same compound, the MIC (clinical N. gonorrhoeae isolate 34, Sweden 2023, read-out: Minimum inhibitory concentration) was 0.064 µg/mL (≈ 0.152 µM), the MIC (clinical N. gonorrhoeae isolate 35, Sweden 2023, read-out: Minimum inhibitory concentration) was 0.032 µg/mL (≈ 0.0761 µM) and the MIC (clinical N. gonorrhoeae isolate 36, Sweden 2023, read-out: Minimum inhibitory concentration) was 0.016 µg/mL (≈ 0.0381 µM). It also gave an MIC (clinical N. gonorrhoeae isolate 37, Sweden 2023, read-out: Minimum inhibitory concentration) of 0.064 µg/mL (≈ 0.152 µM), an MIC (clinical N. gonorrhoeae isolate 38, Sweden 2023, read-out: Minimum inhibitory concentration) of 0.064 µg/mL (≈ 0.152 µM) and an MIC (clinical N. gonorrhoeae isolate 39, Sweden 2023, read-out: Minimum inhibitory concentration) of 0.008 µg/mL (≈ 0.019 µM). For the same compound, the MIC (clinical N. gonorrhoeae isolate 40, Sweden 2023, read-out: Minimum inhibitory concentration) was 0.064 µg/mL (≈ 0.152 µM) and the MIC (clinical N. gonorrhoeae isolate 41, Sweden 2023, read-out: Minimum inhibitory concentration) was 0.125 µg/mL (≈ 0.297 µM).
